Laboratory results from patent US12168005B2, “Methods for treating wild type isocitrate dehydrogenase 1 cancers” (University Hospitals Cleveland Medical Center, priority 2019, dated 2024).

Experiments:
[1] = biological target: T1, wild type IDH1 (Homo sapiens, UniProt O75874); assay: wild type IDH1 enzyme activity at varying Mg2+ concentrations (FIG. 19); format: cell-based; settings: 1 μM, Mg2+ below 0.4 mM
T1 construct: endogenous in cells; host or cells: MiaPaCa2
From the text: In one embodiment, the cancer treated in accordance with any of the invention's methods contains cancer cells having a lower Magnesium^2+ (Mg^2+) concentration compared to Mg^2+ concentration in serum, such as serum from the subject and/or serum from a control subject lacking cancer.

[2] = test system: pancreatic cancer cell line (Panc1) cells; assay: reactive oxygen species (ROS) levels in Panc1 cells; format: cell-based; settings: 1 μM, zero mM magnesium ion, 2.5 mM glucose, Panc1, 48 hours
Method: ROS levels were measured by measuring 2′,7′-dichlorodihydrofluorescein diacetate (DCFDA) or MitoSOX as previously described (Zarei et al. (2017) Cancer Res; 77(16) 4460-4471).
Importantly, these low magnesium ion and low glucose conditions were consistent with the pancreatic cancer tumor microenvironment (FIG. 6).

[3] = test system: wild type IDH1 pancreatic cancer (MiaPaCa2 cell line) xenografts; assay: pancreatic xenograft study (MiaPaCa2); format: in vivo, mice; settings: oral 150 mg/kg
From the text: FIG. 7. […] No toxicity to mice occurred at these oral doses.
No toxicity was observed.

[4] = 500 mg daily in humans; cited from earlier work

T1 sequence (O75874 2-414): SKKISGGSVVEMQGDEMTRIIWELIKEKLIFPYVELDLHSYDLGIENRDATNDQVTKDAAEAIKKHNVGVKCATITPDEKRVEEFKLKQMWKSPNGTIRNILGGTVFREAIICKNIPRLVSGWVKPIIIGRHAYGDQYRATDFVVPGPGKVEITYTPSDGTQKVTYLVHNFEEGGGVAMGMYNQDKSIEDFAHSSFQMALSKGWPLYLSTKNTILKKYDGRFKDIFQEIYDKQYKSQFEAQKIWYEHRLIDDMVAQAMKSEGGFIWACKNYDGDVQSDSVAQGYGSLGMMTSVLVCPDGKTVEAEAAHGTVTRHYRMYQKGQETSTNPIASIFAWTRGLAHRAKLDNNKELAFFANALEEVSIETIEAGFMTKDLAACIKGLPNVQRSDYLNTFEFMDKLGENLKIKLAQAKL

**Q.** For `N#Cc1ccnc(N2C(=O)CC[C@H]2C(=O)N(c2cncc(F)c2)[C@H](C(=O)NC2CC(F)(F)C2)c2ccccc2Cl)c1` [AG-120, Ivosidenib], which “reduction of wild type IDH1 enzyme activity” value [1] is on record?
**A.** 50%

**Q.** What about the “increase in ROS” value [2] of the same compound?
**A.** 3 fold

**Q.** And the toxicity to mice [3]?
**A.** No toxicity

**Q.** And the plasma concentration [4]?
**A.** 130 µM
